Patent US6881577B2, “Method for improving transfection efficiency” (Max-Delbrück-Centrum für Molekulare Medizin, priority 2000, dated 2005)

Assays:
[1] = test system: human colon carcinoma cells (HCT 116); assay: Transfection of HCT 116 cells with plasmid DNA/peptide complexes (with or without LIPOFECTIN), luciferase reporter gene expression; assay type: cell-based
Source text: Complexes consisting in plasmid DNA, peptide and lipid were formed and used in transfection experiments of human colon carcinoma cells (HCT 116) in vitro. The luciferase reporter gene was used in order to measure the transfection efficiency.
In addition to the construction of the mentioned K16 peptides the invention consists in the construction of DNA-peptide-lipid-complexes. A critical issue is thereby the composition of the complexes through the selection of an appropriate peptide to DNA charge ratio as well as an appropriate amount of the lipid. The procedure of complex formation (involving concentrations, volume, buffer type, incubation time and the order by which the elements are sequentially added to the mixture, see FIGS. 1-3 and 4-6) is also a critical factor determining the transfection efficiency of the system.
Based on the above described procedure for the optimization of DNA-peptide-lipid-complexes different complexes containing plasmid DNA, the K16-CYC peptide and cationic liposome (LIPOFECTIN®) were formed and subsequently used in transfection experiments of HCT 116 cells.
Complexes were formed containing plasmid DNA, the K16-VprN peptide and cationic liposome (LIPOFECTIN®) and subsequently used in transfection experiments of HCT 116 cells.
In both applications, the K16-mVprN peptide was used as a control peptide instead of the K16-VprN peptide.

[2] = Dynamic light scattering of peptide/DNA complexes (apparent size, light scattering intensity); assay type: physicochemical; conditions: for relative size of the complexes on dilution: peptide/DNA complexes diluted up to 1:16, FIGS. 13 and 14
Procedure: In order to exclude the possibility that the observed enhancement of the transfection efficiency was mainly related to a more favorable complex formation process when using the K16-VprN peptide, size measurements (FIG. 11) and the determination of the relative particle number (FIG. 12) using dynamic light scattering were performed. […] Indeed, at a peptide to DNA charge ratio of 3 the K16-VprN peptide generates a three-fold increase of the light scattering intensity and an increase of the reporter gene expression of at least 100-times, as compared to K16-mVprN. At a peptide to DNA charge ratio of 9 the light scattering intensity increases twice as compared to charge ratio 3. However, in these conditions the reporter gene expression only increases 10 fold.
The complexes were subsequently diluted up to 1:16 and subjected to dynamic light scattering measurements.

[3] = peptide/DNA complex without lipid, FIG. 10

Substance	reporter gene expression following transfection, compared to the K16-NLS peptide ([1]; complexes of plasmid DNA, peptide and LIPOFECTIN (0.5 or 1 μl), FIGS. 7 and 8)	particle size of DNA complexes compared to K16-mVprN ([2]; dynamic light scattering, FIG. 11)	increase of the light scattering intensity compared to K16-mVprN ([2]; peptide to DNA charge ratio of 3, FIG. 12)	increase of light scattering intensity compared to charge ratio 3 ([2]; peptide to DNA charge ratio of 9, FIG. 12)	relative size of the complexes on dilution ([2]; dynamic light scattering)	increase of the reporter gene expression compared to K16-mVprN ([1]; peptide to DNA charge ratio of 3, without lipid, FIG. 10)	increase of the reporter gene expression ([1]; peptide to DNA charge ratio of 9, without lipid, FIG. 10) [fold]	amount of peptide giving the highest gene expression, less than for K16-mVprN [1, 3] [times]	increase of the maximum reporter gene expression level compared to K16-mVprN [1, 3] [fold]	reporter gene expression compared to the control peptide K16-mVprN ([1]; with and without LIPOFECTIN, FIGS. 9 and 10)
-VKLKVYPLKKKRKP- [K16-CYC]	dramatic increase	–	–	–	–	–	–	–	–	–
KKKKKKKKKKKKKKKKGGGCNEWTLELLEELKNEAVRHF [K16-VprN]	–	no significant difference	three-fold	twice	remains nearly constant	at least 100 times	10	12	10	significant increase
KKKKKKKKKKKKKKKKGGGNEATLELLPELKNPAVRHF (Synthetic peptide sequence, K16-mVprN, that carries 16 lysine residues for the binding of the peptide to the plasmid DNA.)	–	–	–	–	remains nearly constant	–	–	–	–	–
